Experimental data as given in patent publication US6730661B1, “Nutritional composition which contain non-digestible polysaccharides and use thereof to reduce transport through tight junctions” (N. V. Nutricia, priority 1999, dated 2004).

How the values were obtained:
[1] = tested on: duodenum biopsies of a child suffering from microvillus inclusion disease (MVID); experiment: Permeability to HRP of duodenal suction biopsies of a microvillus inclusion disease patient in Ussing chamber; parameters: species or system human; settings: after adding 4.2 g/l to luminal compartment
Excerpt: Suction biopsies were taken from the duodenum of a child suffering from microvillus inclusion disease (MVID).

[2] = tested on: guinea pig intestinal epithelium; experiment: HRP flow over guinea pig intestinal epithelium in Ussing chamber, tight junctions opened by caprate; settings: in vitro, FIG. 2
Procedure: Use was made of a model set-up for determination of the effect of the polysaccharides used.
A test animal, such as a rat or guinea pig, was brought under narcosis. The stomach wall was then opened and a piece of the ileum tied off. The intestinal tissue was removed and stripped of layers of muscle. The preparation thus obtained was then stretched between two compartments through which oxygenated solutions flowed (FIG. 1). The preparation was treated either with buffer (control or blank) or caprate in buffer in order to open the tight junctions (100% permeability) or with the combination of caprate and a certain concentration of polysaccharide in buffer. As a measure of the permeability the transport of HRP (horseradish peroxidase) over the preparation was determined in accordance with known methods.
The in vitro effect of dextran (70 kD) on the increased HRP flow caused by caprate in a guinea pig intestinal epithelium is shown in FIG. 2.

pig intestine = experiment: in situ ischaemia reperfusion model in pigs, HRP flow in jejunum segments; type: in vivo; settings: 5.6 g/l in lumen during ischaemia, pig under full narcosis, caudal jejunum, FIG. 5
Procedure: The figure relates to experiments with a pig under full narcosis, in which segments of the caudal section of the jejunum were taken. The effect of 5.6 g/l dextran (70 kD)(D) in the in situ ischaemia reperfusion model in pigs as a function of the duration of ischaemia was determined in comparison with control (C) where no dextran was introduced into the lumen during ischaemia.

Substance: dextran [dextran (70 kD)]
- HRP in the paracellular spaces or tight junctions by electron microscopy [1]: No further HRP could be detected
- effect on the increased HRP flow caused by caprate [2]: inhibition of the effects of caprate
- HRP flow in the pig intestine increased by ischaemia, compared with control (pig intestine): significant fall
